Twelve molecules from patent US20260022142A1, “MACROCYCLIC IMMUNOMODULATORS” (Bristol-Myers Squibb Company, priority 2022, published 2026) can be followed below.

Bridge positions count the residues as written; N and C are the ends. Square brackets hold non-standard residues; d marks the D form. Peptide text beside a SMILES is read from it. * marks the point of attachment. ξ: configuration not given here. Bip = N[C@@H](Cc1ccc(-c2ccccc2)cc1)C(=O)O; Phe(3-Me) = Cc1cccc(C[C@H](N)C(=O)O)c1; Val(3-OH) = CC(C)(O)[C@H](N)C(=O)O; Cha = N[C@@H](CC1CCCCC1)C(=O)O; Cit = NC(=O)NCCC[C@H](N)C(=O)O; Thr(3ξ) = CC(O)[C@H](N)C(=O)O; Tle = CC(C)(C)[C@H](N)C(=O)O; 12Ado = NCCCCCCCCCCCC(=O)O; Carboxymethyl = O=C(O)C*; Orn = NCCC[C@H](N)C(=O)O; Aun = NCCCCCCCCCCC(=O)O; Dab = NCC[C@H](N)C(=O)O; Dap = NC[C@H](N)C(=O)O

The experiment deals with T1, PD-1/PD-L1 interaction (PE-labeled human PD-L1-Ig binding to Jurkat cell line over-expressing human PD-1) (Homo sapiens, UniProt Q15116).
T1 construct: expressed in transfected cells; host or cells: Jurkat
T1 sequence (Q15116 25-288): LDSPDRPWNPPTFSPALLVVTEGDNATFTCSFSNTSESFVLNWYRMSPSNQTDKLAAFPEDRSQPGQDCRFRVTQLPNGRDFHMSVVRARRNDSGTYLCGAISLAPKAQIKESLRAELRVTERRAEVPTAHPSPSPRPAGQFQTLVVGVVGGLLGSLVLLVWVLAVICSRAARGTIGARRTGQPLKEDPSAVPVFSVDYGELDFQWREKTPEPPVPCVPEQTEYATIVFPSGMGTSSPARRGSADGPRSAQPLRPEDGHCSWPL
Nature of the experiment: Jurkat-PD-1 Cell Binding High-Content Screening Assay (CBA). Type of experiment: cell-based. To be noted: Jurkat cell line over-expressing human PD-1; PE-labeled PD-L1-Ig 20 nM final; read-out: Jurkat hPD1-PDL1 IC50. The gist of the method: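 First, compound is added to PD-1-expressing Jurkat cells in serum-containing DMEM and left 2 h at 37° C. Next, PE-conjugated PD-L1-Ig is introduced at 20 nM final concentration for 1 hour. Finally, cells are fixed in 4% paraformaldehyde with Hoechst 33342, washed and imaged.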
For `Cc1cccc(C[C@@H]2NC(=O)[C@H](CC(=O)O)NC(=O)[C@H](Cc3ccc(OCC(=O)O)cc3)NC(=O)[C@H](CCCNC(=N)N)NC(=O)CSC[C@@H](C(=O)N[C@H](CC(N)=O)C(=O)NCCCCCCCCCCC(=O)O)NC(=O)[C@H](C(C)O)NC(=O)[C@H](C(C)O)NC(=O)[C@H](CC3CCCCC3)NC(=O)[C@H](CCN)NC(=O)[C@@H](CC(C)C)NC(=O)[C@H](CCCN)NC(=O)[C@H](Cc3ccc(OCC(=O)O)cc3)NC(=O)[C@H](Cc3ccc(-c4ccccc4)cc3)NC(=O)[C@H](Cc3ccc(OCC(=O)O)cc3)NC2=O)c1` (stereo partly drawn) [Compound 3523] ({CH2CO}-RY(Carboxymethyl)D[Phe(3-Me)]Y(Carboxymethyl)[Bip]Y(Carboxymethyl)[Orn][dL][Dab][Cha][Thr(3ξ)][Thr(3ξ)]C[dN][Aun]-OH; thioether N-14), the IC50 amounted to 121 nM.

Turning to `Cc1cccc(C[C@@H]2NC(=O)[C@H](CC(=O)O)NC(=O)[C@H](Cc3ccc(OCC(=O)O)cc3)NC(=O)[C@H](CCCNC(=N)N)NC(=O)CSC[C@@H](C(=O)N[C@H](CC(N)=O)C(=O)NCCCCCCCCCCC(=O)O)NC(=O)[C@H](C(C)O)NC(=O)[C@H](C(C)O)NC(=O)[C@H](CC3CCCCC3)NC(=O)[C@H](CCN)NC(=O)[C@@H](CC(C)C)NC(=O)[C@H](CCCN)NC(=O)[C@H](Cc3ccc(OCC(=O)O)cc3)NC(=O)[C@H](Cc3ccc(-c4ccccc4)cc3)NC(=O)[C@H](Cc3ccc(O)cc3)NC2=O)c1` (stereo partly drawn) [Compound 3524] ({CH2CO}-RY(Carboxymethyl)D[Phe(3-Me)]Y[Bip]Y(Carboxymethyl)[Orn][dL][Dab][Cha][Thr(3ξ)][Thr(3ξ)]C[dN][Aun]-OH; thioether N-14), the IC50 is 40.8 nM.

For `Cc1cccc(C[C@@H]2NC(=O)[C@H](CC(=O)O)NC(=O)[C@H](Cc3ccc(OCC(=O)O)cc3)NC(=O)[C@H](CCCNC(=N)N)NC(=O)CSC[C@@H](C(=O)N[C@H](CC(N)=O)C(=O)NCCCCCCCCCCC(=O)O)NC(=O)[C@H](C(C)O)NC(=O)[C@H](CO)NC(=O)[C@H](CC3CCCCC3)NC(=O)[C@H](CCN)NC(=O)[C@@H](CC(C)C)NC(=O)[C@H](CCCN)NC(=O)[C@H](Cc3ccc(OCC(=O)O)cc3)NC(=O)[C@H](Cc3ccc(-c4ccccc4)cc3)NC(=O)[C@H](Cc3c[nH]c4ccccc34)NC2=O)c1` (stereo partly drawn) [Compound 3525] ({CH2CO}-RY(Carboxymethyl)D[Phe(3-Me)]W[Bip]Y(Carboxymethyl)[Orn][dL][Dab][Cha]S[Thr(3ξ)]C[dN][Aun]-OH; thioether N-14), the IC50 was determined as 346 nM.

For the molecule `Cc1cccc(C[C@@H]2NC(=O)[C@H](CC(=O)O)NC(=O)[C@H](Cc3ccc(OCC(=O)O)cc3)NC(=O)[C@H](CCCNC(=N)N)NC(=O)CSC[C@@H](C(=O)N[C@H](CC(N)=O)C(=O)NCCCCCCCCCCC(=O)O)NC(=O)[C@H](CO)NC(=O)[C@H](C(C)O)NC(=O)[C@H](CC3CCCCC3)NC(=O)[C@H](CCN)NC(=O)[C@@H](CC(C)C)NC(=O)[C@H](CCCN)NC(=O)[C@H](Cc3ccc(OCC(=O)O)cc3)NC(=O)[C@H](Cc3ccc(-c4ccccc4)cc3)NC(=O)[C@H](Cc3ccc(OCC(=O)O)cc3)NC2=O)c1` (stereo partly drawn) [Compound 3526] ({CH2CO}-RY(Carboxymethyl)D[Phe(3-Me)]Y(Carboxymethyl)[Bip]Y(Carboxymethyl)[Orn][dL][Dab][Cha][Thr(3ξ)]SC[dN][Aun]-OH; thioether N-14), the IC50 was 112 nM.

Consider `Cc1cccc(C[C@@H]2NC(=O)[C@H](CC(=O)O)NC(=O)[C@H](Cc3ccc(OCC(=O)O)cc3)NC(=O)[C@H](CCCNC(=N)N)NC(=O)CSC[C@@H](C(=O)N[C@H](CC(N)=O)C(=O)NCCCCCCCCCCC(=O)O)NC(=O)[C@H](CO)NC(=O)[C@H](C(C)(C)C)NC(=O)[C@H](CC3CCCCC3)NC(=O)[C@H](CCN)NC(=O)[C@@H](CC(C)C)NC(=O)[C@H](CCCN)NC(=O)[C@H](Cc3ccc(OCC(=O)O)cc3)NC(=O)[C@H](Cc3ccc(-c4ccccc4)cc3)NC(=O)[C@H](Cc3ccc(OCC(=O)O)cc3)NC2=O)c1` [Compound 3527] ({CH2CO}-RY(Carboxymethyl)D[Phe(3-Me)]Y(Carboxymethyl)[Bip]Y(Carboxymethyl)[Orn][dL][Dab][Cha][Tle]SC[dN][Aun]-OH; thioether N-14), for which the half-inhibitory concentration (IC50) stood at 51.4 nM.

As to `Cc1cccc(C[C@@H]2NC(=O)[C@H](CC(=O)O)NC(=O)[C@H](Cc3ccc(OCC(=O)O)cc3)NC(=O)[C@H](CCCNC(=N)N)NC(=O)CSC[C@@H](C(=O)N[C@H](CC(N)=O)C(=O)NCCCCCCCCCCC(=O)O)NC(=O)[C@H](CCC(N)=O)NC(=O)[C@H](C(C)(C)C)NC(=O)[C@H](CC3CCCCC3)NC(=O)[C@H](CCN)NC(=O)[C@@H](CC(C)C)NC(=O)[C@H](CCCN)NC(=O)[C@H](Cc3ccc(OCC(=O)O)cc3)NC(=O)[C@H](Cc3ccc(-c4ccccc4)cc3)NC(=O)[C@H](Cc3ccc(OCC(=O)O)cc3)NC2=O)c1` [Compound 3528] ({CH2CO}-RY(Carboxymethyl)D[Phe(3-Me)]Y(Carboxymethyl)[Bip]Y(Carboxymethyl)[Orn][dL][Dab][Cha][Tle]QC[dN][Aun]-OH; thioether N-14), the IC50 turned out to be 87.8 nM.

Turning to `Cc1cccc(C[C@@H]2NC(=O)[C@H](CC(=O)O)NC(=O)[C@H](Cc3ccc(OCC(=O)O)cc3)NC(=O)[C@H](CCCNC(=N)N)NC(=O)CSC[C@@H](C(=O)N[C@H](CC(N)=O)C(=O)NCCCCCCCCCCC(=O)O)NC(=O)[C@H](CCC(N)=O)NC(=O)[C@H](C(C)O)NC(=O)[C@H](CC3CCCCC3)NC(=O)[C@H](CCN)NC(=O)[C@@H](CC(C)C)NC(=O)[C@H](CCCN)NC(=O)[C@H](Cc3ccc(OCC(=O)O)cc3)NC(=O)[C@H](Cc3ccc(-c4ccccc4)cc3)NC(=O)[C@H](Cc3ccc(OCC(=O)O)cc3)NC2=O)c1` (stereo partly drawn) [Compound 3529] ({CH2CO}-RY(Carboxymethyl)D[Phe(3-Me)]Y(Carboxymethyl)[Bip]Y(Carboxymethyl)[Orn][dL][Dab][Cha][Thr(3ξ)]QC[dN][Aun]-OH; thioether N-14), the IC50 is 78.1 nM.

Consider `Cc1cccc(C[C@@H]2NC(=O)[C@H](CC(=O)O)NC(=O)[C@H](Cc3ccc(OCC(=O)O)cc3)NC(=O)[C@H](CCCNC(=N)N)NC(=O)CSC[C@@H](C(=O)N[C@@H](CCN)C(=O)NCCCCCCCCCCC(=O)O)NC(=O)[C@H](CO)NC(=O)[C@H](C(C)O)NC(=O)[C@H](CC3CCCCC3)NC(=O)[C@H](CCN)NC(=O)[C@@H](CC(C)C)NC(=O)[C@H](CCCN)NC(=O)[C@H](Cc3ccc(OCC(=O)O)cc3)NC(=O)[C@H](Cc3ccc(-c4ccccc4)cc3)NC(=O)[C@H](Cc3ccc(OCC(=O)O)cc3)NC2=O)c1` (stereo partly drawn) [Compound 3530] ({CH2CO}-RY(Carboxymethyl)D[Phe(3-Me)]Y(Carboxymethyl)[Bip]Y(Carboxymethyl)[Orn][dL][Dab][Cha][Thr(3ξ)]SC[Dab][Aun]-OH; thioether N-14), for which the 50% inhibitory concentration (IC50) was found to be 7.3 nM.

As to `Cc1cccc(C[C@@H]2NC(=O)[C@H](CC(=O)O)NC(=O)[C@H](Cc3ccc(OCC(=O)O)cc3)NC(=O)[C@H](CCCNC(=N)N)NC(=O)CSC[C@@H](C(=O)N[C@@H](CCN)C(=O)NCCCCCCCCCCC(=O)O)NC(=O)[C@H](CO)NC(=O)[C@H](C(C)(C)C)NC(=O)[C@H](CC3CCCCC3)NC(=O)[C@H](CCN)NC(=O)[C@@H](CC(C)C)NC(=O)[C@H](CCCN)NC(=O)[C@H](Cc3ccc(OCC(=O)O)cc3)NC(=O)[C@H](Cc3ccc(-c4ccccc4)cc3)NC(=O)[C@H](Cc3c[nH]c4ccccc34)NC2=O)c1` [Compound 3531] ({CH2CO}-RY(Carboxymethyl)D[Phe(3-Me)]W[Bip]Y(Carboxymethyl)[Orn][dL][Dab][Cha][Tle]SC[Dab][Aun]-OH; thioether N-14), the IC50 is 48.6 nM.

As for `Cc1cccc(C[C@@H]2NC(=O)[C@H](CC(=O)O)NC(=O)[C@H](Cc3ccc(OCC(=O)O)cc3)NC(=O)[C@H](CCCNC(=N)N)NC(=O)CSC[C@@H](C(=O)N[C@@H](CCN)C(=O)NCCCCCCCCCCC(=O)O)NC(=O)[C@H](CCC(N)=O)NC(=O)[C@H](C(C)(C)C)NC(=O)[C@H](CC3CCCCC3)NC(=O)[C@H](CCN)NC(=O)[C@@H](CC(C)C)NC(=O)[C@H](CCCN)NC(=O)[C@H](Cc3ccc(OCC(=O)O)cc3)NC(=O)[C@H](Cc3ccc(-c4ccccc4)cc3)NC(=O)[C@H](Cc3ccc(OCC(=O)O)cc3)NC2=O)c1` [Compound 3532] ({CH2CO}-RY(Carboxymethyl)D[Phe(3-Me)]Y(Carboxymethyl)[Bip]Y(Carboxymethyl)[Orn][dL][Dab][Cha][Tle]QC[Dab][Aun]-OH; thioether N-14), the IC50 worked out at 7.5 nM.

As to `Cc1cccc(C[C@@H]2NC(=O)[C@H](CC(=O)O)NC(=O)[C@H](Cc3ccc(OCC(=O)O)cc3)NC(=O)[C@H](CCCNC(=N)N)NC(=O)CSC[C@@H](C(=O)N[C@@H](CCN)C(=O)NCCCCCCCCCCC(=O)O)NC(=O)[C@H](CCC(N)=O)NC(=O)[C@H](C(C)(C)O)NC(=O)[C@H](CC3CCCCC3)NC(=O)[C@H](CCN)NC(=O)[C@@H](CC(C)C)NC(=O)[C@H](CCCN)NC(=O)[C@H](Cc3ccc(OCC(=O)O)cc3)NC(=O)[C@H](Cc3ccc(-c4ccccc4)cc3)NC(=O)[C@H](Cc3ccc(OCC(=O)O)cc3)NC2=O)c1` [Compound 3533] ({CH2CO}-RY(Carboxymethyl)D[Phe(3-Me)]Y(Carboxymethyl)[Bip]Y(Carboxymethyl)[Orn][dL][Dab][Cha][Val(3-OH)]QC[Dab][Aun]-OH; thioether N-14), the IC50 worked out at 5.1 nM.

`Cc1cccc(C[C@@H]2NC(=O)[C@H](CC(=O)O)NC(=O)[C@H](Cc3ccc(OCC(=O)O)cc3)NC(=O)[C@H](CCCNC(=N)N)NC(=O)CSC[C@@H](C(=O)N[C@@H](CCCCN)C(=O)N[C@@H](CO)C(=O)NCCCCCCCCCCCC(=O)O)NC(=O)[C@H](CN)NC(=O)[C@H](C(C)C)NC(=O)[C@H](CC3CCCCC3)NC(=O)[C@H](CCN)NC(=O)[C@@H](CC(C)C)NC(=O)[C@H](CCCN)NC(=O)[C@H](CCCNC(N)=O)NC(=O)[C@H](Cc3ccc(-c4ccccc4)cc3)NC(=O)[C@H](C(C)C)NC2=O)c1` [Compound 3534] ({CH2CO}-RY(Carboxymethyl)D[Phe(3-Me)]V[Bip][Cit][Orn][dL][Dab][Cha]V[Dap]CKS[12Ado]-OH; thioether N-14): the IC50 came out at 22.6 nM.

One may read the IC50 as the concentration that inhibits the measured activity by half.
